Laboratory results from patent publication US20210345614A1, “APPLICATION OF 7-CARBOXYBENZO[1,2,3]THIADIAZOLE AMIDES AS PLANT STIMULANTS” (ADAM MICKIEWICZ UNIVERSITY FOUNDATION, priority 2015, published 2021).

System: Pyrenophora teres
Assay: Field test on barley, fungal infection by Pyrenophora teres
Assay type: in vivo, Hordeum vulgare (spring)
Method: The test was conducted on a variety of barley Hordeum vulgare (spring). As such, six applications of the active substance solution was made. The study was conducted on fields of about 25 m^2 in quadruplicate for each combination tested. […] (with the addition of commercial adjuvant) followed by treatment with common fungicide (tebukonazole in formulation containing 250 g of active substance to be applied per 1 ha) in reducing infection of fungi Pyrenophora teres in barley (Hordeum vulgare (spring)) was performed. […] Six applications of the active substance BTHWA solution were made. As a control, one application of fungicide was performed at the time as indicated on the product label. The study was conducted on fields of about 25 m^2 in quadruplicate for each combination tested. […] The fungicide was applied in an amount of 33% its recommended dose (83 g/ha). Six applications of the active substance BTHWA solution were made. As a control, one application of fungicide was performed at the time as indicated on the product label. The study was conducted on fields of about 25 m^2 in quadruplicate for each combination tested.

[1] = Example 29: tebukonazole 1x 250 g/ha alone, or BTHWA 20 mg/L (six applications) + tebukonazole 1x 125 g/ha
[2] = Example 30: tebukonazole 1x 250 g/ha alone, or BTHWA 20 mg/L (six applications) + tebukonazole 1x, table prints 125 g/ha, text 83 g/ha

Structure (SMILES): CC(C)(C)C(O)(CCc1ccc(Cl)cc1)Cn1cncn1 (racemic) [tebukonazole, (RS)-1-(4-chlorophenyl)-4,4-dimethyl-3-(1H, 1,2,4-triazol-1-ylmethyl)pentan-3-ol]
- % efficacy [1]: 90.87%
- % of infection [1]: 6.00%
- % efficacy [2]: 90.87%
- % of infection [2]: 6.00%
